Results published in US20200288710A1, “SUBSTITUTED SULPHONAMIDES FOR CONTROLLING ANIMAL PESTS” (BAYER CROPSCIENCE AKTIENGESELLSCHAFT, priority 2016, published 2020).

Experiments:
[1] = system: Myzus persicae; experiment: Myzus persicae spray test (Chinese cabbage leaf discs); format: in vivo; conditions: foliar, 120 h, 500 g/ha, after 5-6 days, read-out: efficacy
Protocol: Myzus persicae—Spray Test Solvent: 78 parts by weight of acetone • • 1.5 parts by weight of dimethylformamide Emulsifier: alkylaryl polyglycol ether To produce a suitable preparation of active compound, 1 part by weight of active compound is dissolved using the specified parts by weight of solvent and made up with water containing an emulsifier concentration of 1000 ppm until the desired concentration is attained. To produce further test concentrations, the formulation is diluted with emulsifier-containing water. Discs of Chinese cabbage leaves (Brassica pekinensis) infested by all stages of the green peach aphid (Myzus persicae) are sprayed with an active compound preparation of the desired concentration. After 5-6 days, the efficacy in % is determined. 100% means that all the aphids have been killed; 0% means that no aphids have been killed.

[2] = system: Myzus persicae; experiment: Myzus persicae oral test; format: in vivo; conditions: 120 h, 20 ppm, oral uptake, after 5 days, read-out: efficacy
Protocol: Myzus persicae—Oral Test Solvent: 100 parts by weight of acetone To produce a suitable preparation of active compound, 1 part by weight of active compound is dissolved using the specified parts by weight of solvent and made up with water until the desired concentration is attained. 50 μl of the active compound preparation are transferred into microtitre plates and made up to a final volume of 200 μl with 150 μl of IPL41 insect medium (33%+15% sugar). Subsequently, the plates are sealed with parafilm, which a mixed population of green peach aphids (Myzus persicae) within a second microtitre plate is able to puncture and imbibe the solution through it. After 5 days, the efficacy in % is determined. 100% means that all the aphids have been killed; 0% means that no aphids have been killed.

Row | Compound | pest or weed control at 500 g/ha [1] [%] | pest or weed control at 20 ppm [2] [%]
1 | Cn1cc(C(=O)NS(=O)(=O)c2ccccc2F)nc1-c1c(F)cccc1F [Example 117] | 100 | 90
2 | COc1ccccc1S(=O)(=O)NC(=O)c1cn(C)c(-c2c(F)cccc2Cl)n1 [Example 111] | 100 | 100
3 | Cn1nc(C(=O)NS(=O)(=O)c2ccccc2Cl)nc1-c1c(F)cccc1F [Example 11] | 100 | 100
4 | COc1ccccc1S(=O)(=O)NC(=O)c1cn(C)c(-c2c(F)cc(F)cc2F)n1 [Example 7] | 90 | 90
5 | COc1ccc([N+](=O)[O-])c(S(=O)(=O)NC(=O)c2cn(C)c(-c3c(F)cccc3F)n2)c1 [Example 389] | 90 | 100
6 | COc1ccc(OC)c(S(=O)(=O)NC(=O)c2cn(C)c(-c3ncccc3Cl)n2)c1 [Example 598] | 90 | 100
7 | COc1ccc(Cl)c(S(=O)(=O)NC(=O)c2nc(-c3c(F)cccc3F)c(C)[nH]2)c1 [Example 148] | 90 | 100
8 | Cn1cc(C(=O)NS(=O)(=O)c2ccccc2)nc1-c1c(F)cccc1Cl [Example 112] | 90 | 100
9 | CCn1cc(C(=O)NS(=O)(=O)c2ccccc2Cl)nc1-c1c(F)cccc1F [Example 571] | 100 | 100
10 | Cc1ccccc1S(=O)(=O)NC(=O)c1cn(C)c(-c2cccnc2Cl)n1 [Example 491] | 100 | 100
11 | COc1cccc(F)c1S(=O)(=O)NC(=O)c1cn(C)c(-c2c(F)cccc2F)n1 [Example 381] | 100 | 100
12 | Cc1cccc(C(F)(F)F)c1S(=O)(=O)NC(=O)c1cn(C)c(-c2ncccc2F)n1 [Example 563] | 100 | 100
13 | COc1ccc(F)c(S(=O)(=O)NC(=O)c2cn(C)c(-c3c(F)cccc3Cl)n2)c1 [Example 157] | 100 | 100
14 | COc1ccccc1S(=O)(=O)NC(=O)c1cn(C)c(-c2sccc2Cl)n1 [Example 549] | 100 | 100
15 | CCn1cc(C(=O)NS(=O)(=O)c2ccccc2OC)nc1-c1c(F)cccc1F [Example 569] | 100 | 100
16 | CCc1ccccc1S(=O)(=O)NC(=O)c1cc(C)n(-c2ncccc2Br)n1 [Example 298] | 100 | 100
17 | CCc1cccc(OS(C)(=O)=O)c1S(=O)(=O)NC(=O)c1cn(C)c(-c2c(F)cccc2F)n1 [Example 342] | 100 | 100
18 | Cn1cc(C(=O)NS(=O)(=O)c2c(F)cccc2F)nc1-c1ccccc1Cl [Example 53] | 100 | 100
19 | Cn1cc(C(=O)NS(=O)(=O)c2ccccc2Cl)nc1-c1ncccc1Br [Example 578] | 100 | 100
20 | COc1ccc(OC)c(S(=O)(=O)NC(=O)c2cn(C)c(-c3c(F)cccc3F)n2)c1 [Example 19] | 90 | 100
21 | Cn1cc(C(=O)NS(=O)(=O)c2sc(Cl)cc2Br)nc1-c1c(F)cccc1F [Example 211] | 100 | 100
22 | COc1ccc(F)cc1S(=O)(=O)NC(=O)c1cn(C)c(-c2ncccc2Cl)n1 [Example 591] | 100 | 100
23 | Cc1cccc([N+](=O)[O-])c1S(=O)(=O)NC(=O)c1cn(C)c(-c2c(F)cccc2F)n1 [Example 367] | 90 | 100
24 | Cn1cc(C(=O)NS(=O)(=O)c2cc(Cl)cc(Cl)c2)nc1-c1ccccc1Cl [Example 166] | 90 | 
25 | CCc1[nH]c(-c2ccccc2Cl)nc1C(=O)NS(=O)(=O)C(C)C [Example 121] | 90 | 
26 | CCc1[nH]c(-c2cc(F)cc(F)c2)nc1C(=O)NS(=O)(=O)C(C)C [Example 127] | 90 | 
27 | Cn1cc(C(=O)NS(=O)(=O)c2ccccc2C(F)(F)F)nc1-c1c(F)cc(F)cc1F [Example 5] | 90 | 
28 | Cn1cc(C(=O)NS(=O)(=O)c2c(F)cccc2F)nc1-c1c(Cl)cccc1Cl [Example 24] | 90 | 
